The target in series [1] is T1, ABCB1 (Homo sapiens, UniProt P08183). In words: Cell and fluorescent imaging-based ABCB1-mediated efflux assay (IncuCyte FLR) in KB-V1 cells.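 For all read-outs here: ABCB1-overexpressing KB-V1 cells, live-cell fluorescence imaging of retained calcein (from calcein AM) or MitoTracker Green FM, no preincubation with inhibitor, XR9576 as positive control, calcein AM alone as background.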 The note with it: for inhibition at 10 µM: human.
Protocol: (§2) The cell- and fluorescent imaging-based ABCB1-mediated efflux assays were carried out using ABCB1-overexpressing KB-V1 cells and calcein AM. Calcein AM was diluted in the culture media and then added directly to the cells grown in 96- or 384-well plates at the indicated final concentrations. Additionally, MitoTracker® Green FM was used as a fluorescent substrate in the ABCB1-mediated efflux assay. […] There was no incubation time after addition of the ABCB1 inhibitors. The only time delay between the addition of the inhibitors/drugs and the addition of calcein AM was the sample handling time. […] All wells contained 0.1% DMSO; except when the drugs were serial-diluted, in which the wells with the highest drug concentration contained 0.1% DMSO and the rest of wells contained diluted DMSO from the same working stock solution. The cell culture vessels were placed in a fluorescent and phase-contrast live cell imaging system, the IncuCyte^TMFLR (Essen BioScience, Ann Arbor, MI), in a 37°C incubator supplemented with 5% CO2. Both fluorescent and phase-contrast images (750×950 µm) were taken by the IncuCyte^TMFLR at the indicated time intervals. The approximate number of cells scanned was 200–600 cells per image. Auto-fluorescence of the compounds was determined by treating the cells with the drug candidates in the absence of calcein AM and fluorescence was measured using the IncuCyte^TMFLR and a fluorescent plate reader (Infinite 200 PRO, Tecan System, Inc., San Jose, CA).
(§3) The IncuCyte^TMFLR was programmed to take 4 images per well of a 96-well plate or a single image per well of a 384-well plate. It takes 27 minutes to scan an entire 96-well plate at 4 images per well and 27 minutes to scan an entire 384-well plate at one image per well, respectively. Because intracellular accumulation of calcein is time sensitive, only 3 to 6 columns of a 96-well plate were used for a single experiment. Three positive control (XR9576) wells and three background (calcein AM only) wells were included in each 96-well plate or in each column in the 384-well plates. All experiments were repeated at least twice unless otherwise indicated.
(§4) The IncuCyte^TMFLR software provides the mean of the total fluorescence intensity (mean fluorescence intensity), obtained by averaging fluorescent intensities from all the pixels in the image(s) from each well. The automatically generated mean fluorescence intensity is not corrected for the background fluorescence, which can often lead to distorted outputs. Additional software, the Object Counting v2.0 Analysis software provided by the IncuCyte^TMFLR, can assist further quantification and analysis of the fluorescent images. Using this software, a segmentation mask was generated to separate fluorescent (foreground) and non-fluorescent (background) objects so that the sum of the fluorescent intensity of the positive cells can be calculated without the interference from the background fluorescence. The Object Summed Intensity per mm^2 from the metrix menu was chosen to indicate the background corrected fluorescent intensity of each well and designated as the object intensity.
(§5) The relative inhibition of each compound on calcein AM efflux was calculated by the following equation: [drawing 1] where X represents the mean fluorescence intensities or the object intensities, and T denotes the test compound. The final results were normalized to either the maximum values of the test compounds in the dose-response experiments or to the values from XR9576 (0.2 µM) treated cells.
The target in series [2] is T1, ABCB1. In words: Flow cytometry-based ABCB1-mediated efflux assay in KB-V1 cells. As to conditions: compound 5 µM, calcein AM 1 µM.
Protocol: (§6) An ABCB1-mediated calcein AM efflux assay was also performed with KB-V1 cells and evaluated by flow cytometry as described previously [32]. KB-V1 cells were detached by brief trypsin treatment, followed by addition of medium containing 10% serum to neutralize the trypsin. The detached cells were collected by centrifugation, aliquoted at 500,000 cells/tube, and incubated with the test compounds at the indicated concentrations and calcein AM (1 µM) or MitoTracker® Green FM for 10 minutes in a 37°C water bath. After incubation, the cells were collected by centrifugation at 800xg for 5 minutes and resuspended in PBS/0.1% BSA. The fluorescent substrates retained in KB-V1 cells were detected by flow cytometry (BD FACSCalibur, BD Biosciences, Franklin Lakes, NJ). The data were analyzed with FlowJo 7.2.2 (Tree Star, Inc., Ashland, OR) and presented as histograms. […] Total number of cells counted per sample was 10,000.
Series [3] addresses T1, ABCB1. In words: in vitro.
Protocol: as §2, §3, §4, §5
The subject of series [4] is KB-V1 cells. Description: Cytotoxicity to KB-V1 cells seen in the imaging assay. The format is cell-based, human. The source says: (§1) Compounds that auto-fluoresced were excluded from further analysis.
For series [5], the target named is T1, ABCB1.
Protocol: as §2, §3, §4, §5
The test system of series [6] is KB-3-1 cells. In words: Cell imaging-based calcein accumulation in parental KB-3-1 cells. Set-up: species or system human. The note with it: 1 µM calcein AM, 1 hour, mean fluorescence intensities. As for the experimental part:
ABCB1-overexpressing KB-V1 cells, previously selected and maintained with vinblastine (1 µg/ml), and the parental line, KB-3-1 cells, were cultured in DMEM supplemented with 10% FBS [26], [27], [28]. Vinblastine was removed from the KB-V1 cell culture medium 2 to 3 days before each experiment. For the efflux assay, the cells were plated at either 20,000 cells per well in 96-well (100 µl/well) or 2,500 cells per well in 384-well (40 µl/well) flat, clear bottom, white or black-walled polystyrene tissue culture plates (uncoated) (Corning Life Sciences, Tewksbury, MA) and incubated at 37°C. After the cell confluence reached 30–80% (1 to 3 days in culture), the cell and fluorescent imaging-based efflux assays were performed. The ABCB1 overexpressing HCT-15-Pgp cells, used for the cytotoxicity assays, were also cultured in DMEM supplemented with 10% FBS [29]. All cell lines were gifts from Dr. Michael M. Gottesman (NCI, Bethesda, MD).
as §1

The target of series [7] is T1, ABCB1. The source holds these as a separate data set.
Protocol: as §6
Series [8] concerns the target T1, ABCB1. In words: Photolabeling of ABCB1 with [125I]IAAP. Format: binding. More on the design: made in house; host or cells: Hifive insect cells (crude / plasma membranes). The note with it: compound 20 µM, membranes from Hifive cells overexpressing human ABCB1, autoradiograph.
Protocol: The interaction of selected compounds with ABCB1 was assessed by an in vitro photolabeling assay as previously described [32].
The nature of series [9]: Cell viability assay (CCK-8). The note with it: human, HCT-15-Pgp cells.
Protocol: HCT-15-Pgp cells were plated and cultured in 96-well plates for 1 or 2 days, until they reached 50–80% confluency. […] Cell viability was examined using the Cell Counting Kit-8 (CCK-8, Dojindo Molecular Technologies, Inc., Rockville, MD); which functions similar to MTT assays by reduction of the tetrazolium salt, WST-8, to yield a yellow-colored and water-soluble formazan dye (measured at 450 nm).
[10] abbreviates: ABCB1-overexpressing KB-V1 cells, probe calcein AM (1 µM).

Structures can show the parent of a compound that is named as a salt. Where two headings read alike, the source gives them in different places.

T1 sequence (P08183 whole entry): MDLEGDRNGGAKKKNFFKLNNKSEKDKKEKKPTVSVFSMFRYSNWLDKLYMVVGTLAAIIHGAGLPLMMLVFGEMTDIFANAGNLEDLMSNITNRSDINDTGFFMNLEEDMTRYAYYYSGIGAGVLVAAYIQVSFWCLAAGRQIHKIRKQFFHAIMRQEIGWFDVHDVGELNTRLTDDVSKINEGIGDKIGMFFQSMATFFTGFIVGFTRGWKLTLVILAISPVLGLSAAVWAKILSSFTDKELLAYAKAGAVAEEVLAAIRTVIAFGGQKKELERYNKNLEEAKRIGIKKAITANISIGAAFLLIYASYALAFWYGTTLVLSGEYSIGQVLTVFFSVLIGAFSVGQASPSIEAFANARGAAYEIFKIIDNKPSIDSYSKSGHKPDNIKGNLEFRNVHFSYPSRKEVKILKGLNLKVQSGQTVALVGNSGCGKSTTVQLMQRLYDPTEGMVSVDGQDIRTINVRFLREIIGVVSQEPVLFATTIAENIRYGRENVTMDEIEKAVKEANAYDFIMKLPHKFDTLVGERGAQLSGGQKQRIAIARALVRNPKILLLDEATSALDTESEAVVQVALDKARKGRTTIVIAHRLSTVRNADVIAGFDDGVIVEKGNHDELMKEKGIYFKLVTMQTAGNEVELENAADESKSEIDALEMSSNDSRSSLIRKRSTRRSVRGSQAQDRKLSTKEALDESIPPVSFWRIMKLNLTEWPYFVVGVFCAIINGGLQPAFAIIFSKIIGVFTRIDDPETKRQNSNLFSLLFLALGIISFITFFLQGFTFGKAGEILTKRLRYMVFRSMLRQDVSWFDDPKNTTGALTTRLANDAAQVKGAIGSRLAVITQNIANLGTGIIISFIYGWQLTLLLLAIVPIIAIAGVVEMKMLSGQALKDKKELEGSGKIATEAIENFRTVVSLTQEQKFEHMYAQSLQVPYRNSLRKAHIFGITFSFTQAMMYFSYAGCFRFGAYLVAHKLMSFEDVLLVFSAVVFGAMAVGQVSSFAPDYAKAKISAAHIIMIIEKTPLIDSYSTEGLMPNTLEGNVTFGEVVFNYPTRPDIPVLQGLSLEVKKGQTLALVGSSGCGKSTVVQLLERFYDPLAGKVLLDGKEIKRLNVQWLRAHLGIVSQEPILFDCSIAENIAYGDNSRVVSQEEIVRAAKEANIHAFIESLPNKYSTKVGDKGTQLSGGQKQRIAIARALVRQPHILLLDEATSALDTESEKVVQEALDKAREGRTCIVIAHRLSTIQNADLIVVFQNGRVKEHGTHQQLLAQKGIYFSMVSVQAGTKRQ

As to `Cc1ccc(NC(=O)c2ccc(CN3CCN(C)CC3)cc2)cc1Nc1nc(-c2cccnc2)cs1` [Masitinib (AB1010), Masitinib], the inhibition at 10 µM in series [1] (setting [10]) was at least 50%.

Take `CCC/C=C/C=C/C(=O)O[C@H]1/C(=C/C(=O)OC)C[C@H]2C[C@H]([C@@H](C)O)OC(=O)C[C@H](O)C[C@@H]3C[C@H](OC(C)=O)C(C)(C)[C@](O)(C[C@@H]4C/C(=C/C(=O)OC)C[C@H](/C=C/C(C)(C)[C@]1(O)O2)O4)O3` [bryostatin-1, Bryostatin-1]: the “Inhibition of ABCB1-mediated calcein AM efflux, flow cytometry” value in series [2] is listed as “failed to inhibit”. In series [1] (KB-V1 cells, 96-well plates, 1 µM calcein AM), the “Inhibition of ABCB1-mediated calcein AM efflux in dose-response experiment” value was “failed to inhibit”. With `O=C(Nc1cccc(Cl)c1)Nc1ncc(CCNc2ncnc3ccsc23)s1` [SNS-314 Mesylate], in series [3], the inhibition at 10 µM is at least 50%.

In the case of `COc1cc2c(Oc3ccc4[nH]c(C)cc4c3F)ncnc2cc1OCCCN1CCCC1` [Cediranib (AZD2171), Cediranib], the inhibition at 10 µM in series [3] was at least 50%.

With `COc1cc2c(cc1OC)CN(CCc1ccc(NC(=O)c3cc(OC)c(OC)cc3NC(=O)c3cnc4ccccc4c3)cc1)CC2` [XR9576, tariquidar], the “Concentration cytotoxic to cells” value in series [4] (imaging assay (not shown)) was over 1000 nM. Also, the “Inhibition of ABCB1-mediated calcein AM efflux in dose-response experiment” value in series [5] is on record as “dose-dependent inhibition”. For the same compound, the “Inhibition of MitoTracker Green FM efflux, cell imaging” value in series [5] (human) is “inhibition on ABCB1-mediated efflux was detected”. In addition, in series [1], the midpoint of inhibition, the IC50, lay at 0.00728 µM. Moreover, the “Effect on fluorescent calcein accumulation” value in series [6] is reported as “independent”. The “Inhibition of MitoTracker Green FM efflux, flow cytometry” value in [7] is “blocked”. Regarding `COc1cc2ncnc(Nc3ccc(F)c(Cl)c3)c2cc1OCCCN1CCOCC1` [Gefitinib (Iressa), Gefitinib], the inhibition at 10 µM in series [3] was at least 50%.

For `Cc1cn(-c2cc(NC(=O)c3ccc(C)c(Nc4nccc(-c5cccnc5)n4)c3)cc(C(F)(F)F)c2)cn1` [Nilotinib], in [3], the inhibition at 10 µM is at least 50%. As for `Cc1cnc(NC(=O)Nc2cc(Br)c(C)cc2OC[C@@H]2CNCCO2)cn1` [LY2603618], the inhibition at 10 µM in [3] was at least 50%.

For `C[C@@H](Oc1cc(-n2cnc3ccc(CN4CCN(C)CC4)cc32)sc1C(N)=O)c1ccccc1C(F)(F)F` [GSK461364], the inhibition at 10 µM in series [1] (setting [10]) is at least 50%. In series [3], `CO[C@H]1C[C@@H]2CC[C@@H](C)[C@@](O)(O2)C(=O)C(=O)N2CCCC[C@H]2C(=O)O[C@H]([C@H](C)C[C@@H]2CC[C@@H](OP(C)(C)=O)[C@H](OC)C2)CC(=O)[C@H](C)/C=C(\C)[C@@H](O)[C@@H](OC)C(=O)[C@H](C)C[C@H](C)/C=C/C=C/C=C/1C` [Deforolimus (MK-8669), Deforolimus] came in with an inhibition at 10 µM of at least 50%. Same read-out and setting: to `Cc1ccc(NC(=O)c2ccc(CN3CCN(C)CC3)cc2)cc1Nc1nccc(-c2cccnc2)n1` [Imatinib (STI571), Imatinib] belongs at least 50%. Turning to `O=C(c1ccc(Nc2nccc(-c3cc4ccccc4s3)n2)cc1)N1CCC(N2CCCC2)CC1` [IKK 16], in [5], the “IC50, inhibition of ABCB1-mediated calcein AM efflux” value was “cannot be calculated from the data” and the “Inhibition of ABCB1-mediated calcein AM efflux in dose-response experiment” value was “dose-dependent inhibition”. Moreover, the “Inhibition of ABCB1-mediated calcein AM efflux, flow cytometry” value in series [2] was “inhibited”. In series [8], the “Competition with [125I]IAAP for direct binding to ABCB1” value is recorded as “successfully competed”.

As for `CCOc1cc2ncc(C#N)c(Nc3ccc(F)c(Cl)c3)c2cc1NC(=O)/C=C/CN(C)C` [Pelitinib], in series [1] (setting [10]), the inhibition at 10 µM is at least 50%. In series [3], `CO[C@H]1C[C@@H]2CC[C@@H](C)[C@@](O)(O2)C(=O)C(=O)N2CCCC[C@H]2C(=O)O[C@H]([C@H](C)C[C@@H]2CC[C@@H](OC(=O)C(C)(CO)CO)[C@H](OC)C2)CC(=O)[C@H](C)/C=C(\C)[C@@H](O)[C@@H](OC)C(=O)[C@H](C)C[C@H](C)/C=C/C=C/C=C/1C` [Temsirolimus] gave an inhibition at 10 µM of at least 50%.

With `COc1cc2nccc(Oc3ccc(NC(=O)Nc4cc(C)on4)c(Cl)c3)c2cc1OC` [AV-951 (Tivozanib), Tivozanib], the inhibition at 10 µM in series [1] (setting [10]) was at least 50%.

In the case of `CN(C)C/C=C/C(=O)Nc1cc2c(Nc3ccc(F)c(Cl)c3)ncnc2cc1O[C@H]1CCOC1` [BIBW2992 (Tovok)], in series [1], the inhibition at 10 µM was at least 50%.

Take `C[S+](C)[O-]` [DMSO, dimethyl sulfoxide]: in [4] (1 µM calcein AM (data not shown)), the “Concentration toxic to KB-V1 cells” value was ≥ 0.5 % (v/v). `COc1cc(Nc2c(C#N)cnc3cc(OCCCN4CCN(C)CC4)c(OC)cc23)c(Cl)cc1Cl` [Bosutinib (SKI-606), Bosutinib] gave an inhibition at 10 µM in series [3] of at least 50%. For the compound `CN1CCN(CCOc2cc(OC3CCOCC3)c3c(Nc4c(Cl)ccc5c4OCO5)ncnc3c2)CC1` [AZD0530 (Saracatinib), Saracatinib], in [1] (setting [10]), the inhibition at 10 µM was at least 50%. Turning to `CC[C@@H]1C(=O)N(C)c2cnc(Nc3ccc(C(=O)NC4CCN(C)CC4)cc3OC)nc2N1C1CCCC1` [BI 2536], the IC50 at 48 h in series [9] worked out at 1.28 µM. `CC1(COc2ccc3c(c2)ncn3-c2ccc3cccc(N4CCC(N)CC4)c3n2)COC1` [Crenolanib (CP-868596), Crenolanib]: the inhibition at 10 µM in series [1] (setting [10]) is at least 50%. Regarding `COc1ccc2c3c([nH]c2c1)[C@H](C=C(C)C)N1C(=O)[C@@H]2CCCN2C(=O)[C@@H]1C3` [FTC, fumitremorgin C], in [2], the “Inhibition of ABCB1-mediated calcein AM efflux, flow cytometry” value is recorded as “neither ABCG2 specific inhibitor FTC nor ABCC1 specific inhibitor MK-571 interfered”. Regarding `CO[C@H]1C[C@@H]2CC[C@@H](C)[C@@](O)(O2)C(=O)C(=O)N2CCCC[C@H]2C(=O)O[C@H]([C@H](C)C[C@@H]2CC[C@@H](OCCO)[C@H](OC)C2)CC(=O)[C@H](C)/C=C(\C)[C@@H](O)[C@@H](OC)C(=O)[C@H](C)C[C@H](C)/C=C/C=C/C=C/1C` [Everolimus (RAD001), Everolimus], in series [1] (setting [10]), the inhibition at 10 µM is at least 50%.

For the compound `CC[C@@H]1C(=O)N(C)c2cnc(Nc3ccc(C(=O)N[C@H]4CC[C@H](N5CCN(CC6CC6)CC5)CC4)cc3OC)nc2N1C(C)C` [BI6727], the inhibition at 10 µM in [1] (setting [10]) was at least 50%. Consider `S=C(NCc1ccc2c(c1)OCO2)N1CCN(c2ncnc3c2oc2ccccc23)CC1` [MP-470 (Amuvatinib), Amuvatinib], for which the inhibition at 10 µM in series [1] (setting [10]) was at least 50%. As for `C=CC(=O)Nc1cccc(Oc2nc(Nc3ccc(N4CCN(C)CC4)cc3OC)ncc2Cl)c1` [WZ4002], the inhibition at 10 µM in series [3] is at least 50%. Take `CS(=O)(=O)CCNCc1ccc(-c2ccc3ncnc(Nc4ccc(OCc5cccc(F)c5)c(Cl)c4)c3c2)o1` [Lapatinib Ditosylate]: the inhibition at 10 µM in series [1] (setting [10]) is at least 50%. Consider `Cn1c(=O)n(-c2ccc(C(C)(C)C#N)cc2)c2c3cc(-c4cnc5ccccc5c4)ccc3ncc21` [BEZ235], for which the “Inhibition of ABCB1-mediated calcein AM efflux in dose-response experiment” value in [5] is “dose-dependent inhibition”. Besides, the IC50 in series [1] worked out at 20.1 µM. The inhibition at 10 µM in [3] is at least 50%. Regarding `CN(C)C(=O)CCSC(SCCC(=O)O)c1cccc(/C=C/c2ccc3ccc(Cl)cc3n2)c1` (stereo not shown) [MK-571], the “Inhibition of ABCB1-mediated calcein AM efflux, flow cytometry” value in series [2] was “neither ABCG2 specific inhibitor FTC nor ABCC1 specific inhibitor MK-571 interfered”. In series [3], `C=CC(=O)Nc1cc2c(Nc3ccc(F)c(Cl)c3)ncnc2cc1OCCCN1CCOCC1` [CI-1033 (Canertinib), Canertinib] came in with an inhibition at 10 µM of at least 50%.

Compound `CO[C@H]1C[C@@H]2CC[C@@H](C)[C@@](O)(O2)C(=O)C(=O)N2CCCC[C@H]2C(=O)O[C@H]([C@H](C)C[C@@H]2CC[C@@H](O)[C@H](OC)C2)CC(=O)[C@H](C)/C=C(\C)[C@@H](O)[C@@H](OC)C(=O)[C@H](C)C[C@H](C)/C=C/C=C/C=C/1C` [Rapamycin (Sirolimus), Rapamycin] gave an inhibition at 10 µM in series [3] of at least 50%. As to `Cc1ccc(C(=O)N(CCCN)[C@@H](c2nc3cc(Cl)ccc3c(=O)n2Cc2ccccc2)C(C)C)cc1` [ispinesib], in series [5], the “Inhibition of ABCB1-mediated calcein AM efflux in dose-response experiment” value was “dose-dependent inhibition”. Also, the “Competition with [125I]IAAP for direct binding to ABCB1” value in [8] is on record as “marginal effect”. The IC50 in [1] was 5.04 µM. Further, the “Inhibition of ABCB1-mediated calcein AM efflux, flow cytometry” value in series [7] is recorded as “inhibited”.

These data come from PMC3622673, “Screening Compounds with a Novel High-Throughput ABCB1-Mediated Efflux Assay Identifies Drugs with Known Therapeutic Targets at Risk for Multidrug Resistance Interference” (PLoS ONE, 2013).
